Experiments:
Histamine H2 receptor = Histamine H2 receptor (Rattus norvegicus, UniProt P25102); experiment: Affinity to the Histamine H2 receptor was determined expressed in CHO cell using [125I]iodoaminopotentidine as radioligand; type: cell-based
[1] = pKa2 (heterocyclic ring); type: physicochemical; conditions: read-out: pKa2
Histamine H1 receptor = Histamine H1 receptor (Cavia porcellus, UniProt P31389); experiment: Tested for affinity towards H1 receptor in guinea pig ileum; type: tissue-based; conditions: read-out: pA2 (converted)
Sequence of Histamine H1 receptor (P31389 whole entry): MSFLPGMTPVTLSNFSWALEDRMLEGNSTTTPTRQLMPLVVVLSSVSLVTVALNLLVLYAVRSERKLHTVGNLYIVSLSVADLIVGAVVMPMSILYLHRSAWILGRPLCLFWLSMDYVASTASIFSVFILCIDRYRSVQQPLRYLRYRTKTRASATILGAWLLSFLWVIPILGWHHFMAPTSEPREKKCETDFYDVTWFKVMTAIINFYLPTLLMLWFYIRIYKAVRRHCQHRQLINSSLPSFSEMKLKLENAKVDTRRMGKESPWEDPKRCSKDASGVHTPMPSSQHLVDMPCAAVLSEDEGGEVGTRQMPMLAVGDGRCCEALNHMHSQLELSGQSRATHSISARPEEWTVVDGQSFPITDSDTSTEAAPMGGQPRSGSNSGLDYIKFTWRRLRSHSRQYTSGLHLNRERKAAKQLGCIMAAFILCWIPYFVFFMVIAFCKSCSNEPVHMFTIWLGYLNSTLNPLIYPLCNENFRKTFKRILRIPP

[2] = pKa1 (aliphatic amine); type: physicochemical; conditions: read-out: pKa1
[3] = molecular target: Histamine H3 receptor (Cavia porcellus) (UniProt Q9JI35); experiment: Tested for affinity towards Histamine H3 receptor in electrically stimulated guinea pig jejunum; type: tissue-based
Sequence of Histamine H3 receptor (Cavia porcellus) (Q9JI35 whole entry): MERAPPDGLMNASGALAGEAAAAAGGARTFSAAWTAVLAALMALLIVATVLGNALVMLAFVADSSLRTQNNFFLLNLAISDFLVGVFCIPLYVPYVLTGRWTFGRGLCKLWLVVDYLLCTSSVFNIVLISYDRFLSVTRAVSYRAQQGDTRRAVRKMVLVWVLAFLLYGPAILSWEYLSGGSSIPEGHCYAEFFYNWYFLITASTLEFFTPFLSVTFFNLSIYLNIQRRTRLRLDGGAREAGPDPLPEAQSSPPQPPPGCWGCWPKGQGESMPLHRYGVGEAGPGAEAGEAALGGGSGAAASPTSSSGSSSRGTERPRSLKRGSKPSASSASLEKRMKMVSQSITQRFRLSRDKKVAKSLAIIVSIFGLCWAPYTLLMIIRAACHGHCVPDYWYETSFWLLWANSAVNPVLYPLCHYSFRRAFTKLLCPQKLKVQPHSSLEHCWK

[4] = molecular target: Histamine H2 receptor (Cavia porcellus) (UniProt P47747); experiment: Histamine H2 receptor activity was determined on the isolated spontaneously beating guinea pig right atrium; type: tissue-based; conditions: Cardiac atrium
Sequence of Histamine H2 receptor (Cavia porcellus) (P47747 whole entry): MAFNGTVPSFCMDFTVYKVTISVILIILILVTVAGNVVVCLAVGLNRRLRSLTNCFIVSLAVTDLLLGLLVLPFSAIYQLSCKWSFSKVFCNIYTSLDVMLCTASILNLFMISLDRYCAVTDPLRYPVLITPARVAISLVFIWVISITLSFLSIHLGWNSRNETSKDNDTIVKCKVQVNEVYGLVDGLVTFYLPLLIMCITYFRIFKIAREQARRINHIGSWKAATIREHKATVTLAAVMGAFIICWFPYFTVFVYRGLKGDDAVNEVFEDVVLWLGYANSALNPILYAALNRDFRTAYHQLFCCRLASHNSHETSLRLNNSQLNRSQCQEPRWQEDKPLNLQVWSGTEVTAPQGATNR

Sequence of Histamine H2 receptor (P25102 whole entry): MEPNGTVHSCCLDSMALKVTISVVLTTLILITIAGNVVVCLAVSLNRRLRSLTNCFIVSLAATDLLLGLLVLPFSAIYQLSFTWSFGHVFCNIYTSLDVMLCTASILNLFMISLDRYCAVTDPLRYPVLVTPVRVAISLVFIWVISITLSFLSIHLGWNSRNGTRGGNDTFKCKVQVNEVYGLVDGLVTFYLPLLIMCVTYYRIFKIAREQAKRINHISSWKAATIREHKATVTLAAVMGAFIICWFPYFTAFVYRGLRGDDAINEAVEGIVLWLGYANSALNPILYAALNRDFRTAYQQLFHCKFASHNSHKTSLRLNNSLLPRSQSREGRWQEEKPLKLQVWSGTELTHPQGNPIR

With `Cc1nc(N)[se]c1CCN` the Kd (Histamine H2 receptor) was 9.77 µM, the pKa [1] was 5.78 and the Kb (Histamine H1 receptor) was 141 µM. For the same compound, the pKa [2] was 9.21, the pD2 [3] was 4.44 and the pD2 [4] was 6.41.

With `Cc1nc(N)sc1CCN` [AMTHAMINE] the Kd (Histamine H2 receptor) was 11.5 µM, the pKa [1] was 5.4 and the pKa [2] was 9.15.

For `NCCc1c[nH]cn1` [HISTAMINE], the Kd (Histamine H2 receptor) was 117 µM, the pKa [1] was 5.93 and the pKa [2] was 9.32.

— ChEMBL document CHEMBL1159163, “Amselamine, a new selective histamine H2-receptor agonist” (Bioorg Med Chem Lett, 1994)
